Assays:
Format in all cases: biochemical
Settings in all cases: recombinant enzyme, 37° C. for 2 hours
[1] = target: EGFR del19 (Homo sapiens (Human), UniProt P00533, DEL746-750); experiment: HTRF inhibitory activity against EGFR mutant enzyme (EGFR del19)
Protocol: (§1) The activity of the compounds of the present invention against EGFR mutant enzymes was measured using the HTRF system purchased from Cisbio as follows. For an EGFR mutant enzyme, the EGFR del19 enzyme was a recombinant protein purchased from Carna Biosciences, and the EGFR A763_Y764insFHEA enzyme was a recombinant protein purchased from SignalChem, respectively.
(§2) The composition of the assay buffer used for activity measurement was 50 mM tris-HCl pH 7.5, 100 mM NaCl, 7.5 mM MgCl2, 3 mM KCl, 0.01% tween 20, 0.1% BSA, and 1 mM DTT. An enzymatic reaction was performed using a peptide substrate labeled with ATP at a concentration of […] and biotin at a concentration of […]. The analysis of the inhibitory effect of the compounds on EGFR activity was performed according to the following method. • Component 1:4 μL of EGFR mutant enzyme • Component 2:2 μL of compound solution • Component 3:4 μL of ATP and a biotin labeled peptide
(§3) The enzyme reaction begins by first mixing component 1 and component 2 and then adding component 3 thereto. After the reaction at 37° C. for 2 hours, […] of a measurement solution consisting of streptavidin-XL665 and a europium-labeled anti-phosphotyrosine antibody purchased from Cisbio was added to the enzyme reaction solution and reacted at room temperature for 1 hour. Finally, the ratio of fluorescence values at 615 nm and 665 nm was measured using Perkin-Elmer's Envision instrument to calculate enzyme activity and confirm the inhibitory ability of the compounds. The measured values at 7 compound concentrations were analyzed using the Prism program (version 5.01, Graphpad Software, Inc.), and the IC50 (μM) values, which are measures of the compounds' inhibitory activity, were calculated.

[2] = target: EGFR A763_Y764insFHEA (Homo sapiens (Human), UniProt P00533, INS763FHEA); experiment: HTRF inhibitory activity against EGFR mutant enzyme (EGFR A763_Y764insFHEA)
Protocol: as §1, §2, §3

[3] = target: HER2 A775_G776insYVMA (Homo sapiens (Human), UniProt P04626, INS775YVMA); experiment: HTRF inhibitory activity against HER2 mutant enzyme
Protocol: The activity of the compounds of the present invention against HER mutant enzymes was measured using the HTRF system purchased by Cisbio as follows. As a HER2 mutant enzyme, the HER2 A775_G776insYVMA mutant enzyme was used by purchasing a recombinant protein provided by Carna Biosciences.
as §2, with “mM DTT. In addition thereto, the enzymatic reaction” for “mM DTT. An enzymatic reaction”, “of the activity inhibitory effect” for “of the inhibitory effect”, “compounds on HER2 A775_G776insYVMA mutation was performed” for “compounds on EGFR activity was performed”, “μL of HER2 A775_G776insYVMA mutant enzyme” for “μL of EGFR mutant enzyme”
as §3, with “Finally, the ratio of fluorescence values at 615 nm and 665 nm was measured using Perkin-Elmer's Envision instrument to calculate enzyme activity and confirm the inhibitory ability of the compounds.” left out, “ability,” for “activity,”

Sequence of EGFR A763_Y764insFHEA (P00533 other isoform, or with tags, fused parts or gaps del 1-694/ins FHEA behind 763 limits assumed): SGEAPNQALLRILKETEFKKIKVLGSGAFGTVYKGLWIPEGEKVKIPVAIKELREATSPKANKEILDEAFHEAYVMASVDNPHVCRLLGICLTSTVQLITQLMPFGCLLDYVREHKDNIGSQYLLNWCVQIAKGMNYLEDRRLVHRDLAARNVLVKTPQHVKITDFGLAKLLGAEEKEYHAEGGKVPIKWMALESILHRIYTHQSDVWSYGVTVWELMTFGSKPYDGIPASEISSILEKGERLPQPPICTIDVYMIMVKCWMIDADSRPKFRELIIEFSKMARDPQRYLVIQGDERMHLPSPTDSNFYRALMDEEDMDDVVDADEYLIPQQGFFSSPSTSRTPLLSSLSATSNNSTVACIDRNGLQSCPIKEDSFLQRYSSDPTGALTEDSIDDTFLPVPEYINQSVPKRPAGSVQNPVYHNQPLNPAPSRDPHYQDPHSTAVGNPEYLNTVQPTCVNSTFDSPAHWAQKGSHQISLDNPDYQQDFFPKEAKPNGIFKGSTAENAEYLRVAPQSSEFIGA
Sequence of EGFR del19 (P00533 other isoform, or with tags, fused parts or gaps del 1-668/del 746-750 limits assumed): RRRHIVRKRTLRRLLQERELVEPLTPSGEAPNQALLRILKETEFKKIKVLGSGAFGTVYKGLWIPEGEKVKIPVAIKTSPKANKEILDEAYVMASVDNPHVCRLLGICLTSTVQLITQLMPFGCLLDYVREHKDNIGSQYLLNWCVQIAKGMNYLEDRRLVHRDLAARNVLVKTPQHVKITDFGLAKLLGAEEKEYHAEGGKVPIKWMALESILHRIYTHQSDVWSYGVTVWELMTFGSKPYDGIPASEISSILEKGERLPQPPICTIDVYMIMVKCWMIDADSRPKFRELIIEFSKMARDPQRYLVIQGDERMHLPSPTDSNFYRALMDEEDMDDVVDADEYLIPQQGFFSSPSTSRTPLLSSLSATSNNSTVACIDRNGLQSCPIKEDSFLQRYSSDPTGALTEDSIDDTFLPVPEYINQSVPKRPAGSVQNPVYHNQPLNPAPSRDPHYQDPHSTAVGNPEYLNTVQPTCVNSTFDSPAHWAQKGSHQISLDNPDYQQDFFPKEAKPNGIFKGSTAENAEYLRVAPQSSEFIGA
Sequence of HER2 A775_G776insYVMA (P04626 other isoform, or with tags, fused parts or gaps del 1-675/ins YVMA behind 775 limits assumed): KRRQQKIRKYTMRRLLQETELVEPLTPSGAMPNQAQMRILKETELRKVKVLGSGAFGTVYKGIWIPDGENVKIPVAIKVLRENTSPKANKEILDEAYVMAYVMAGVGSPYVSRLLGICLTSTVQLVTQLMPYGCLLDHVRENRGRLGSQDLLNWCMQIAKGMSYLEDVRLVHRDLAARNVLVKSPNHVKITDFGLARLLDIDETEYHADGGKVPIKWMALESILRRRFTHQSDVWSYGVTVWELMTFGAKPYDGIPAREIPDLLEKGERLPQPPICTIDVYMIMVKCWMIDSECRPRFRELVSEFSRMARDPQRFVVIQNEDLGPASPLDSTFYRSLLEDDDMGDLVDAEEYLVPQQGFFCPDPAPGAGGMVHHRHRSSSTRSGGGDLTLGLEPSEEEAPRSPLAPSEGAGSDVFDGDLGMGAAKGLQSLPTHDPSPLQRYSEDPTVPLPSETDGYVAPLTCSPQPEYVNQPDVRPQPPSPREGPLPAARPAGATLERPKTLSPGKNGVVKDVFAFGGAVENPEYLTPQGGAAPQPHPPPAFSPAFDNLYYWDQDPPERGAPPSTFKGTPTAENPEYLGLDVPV

IC50 [1] | IC50 [2] | IC50 [3] | Compound
< 1 nM | < 1 nM | 5 nM | C=CC(=O)Nc1cc(Nc2ncc(Cl)c(Nc3cccc4c3N(S(C)(=O)=O)CC4)n2)c(OC)cc1N(C)CCN1CCN(C)CC1 [Example 73, N-(5-((5-chloro-4-((1-(methylsulfonyl)indolin-7-yl)amino)pyrimidin-2-yl)amino)-4-methoxy-2-(methyl(2-(4-methylpiperazin-1-yl)ethyl)amino)phenyl)acrylamide]
< 1 nM | < 1 nM | 10 nM | C=CC(=O)Nc1cc(Nc2ncc(C(=O)OC)c(Nc3cccc4c3N(S(C)(=O)=O)CC4)n2)c(OC)cc1N(C)CCN(C)C [Example 60, methyl 2-((5-acrylamido-4-((2-(dimethylamino)ethyl)(methyl)amino)-2-methoxyphenyl)amino)-4-((1-(methylsulfonyl)indolin-7-yl)amino)pyrimidin-5-carboxylate]
< 1 nM | 4 nM | 33 nM | C=CC(=O)Nc1cc(Nc2ncc(Cl)c(Nc3ccccc3N3CCCS3(=O)=O)n2)c(OC)cc1N(C)CCN(C)C [Example 70, N-(5-((5-chloro-4-((2-(1,1-dioxidoisothiazolidin-2-yl)phenyl)amino)pyrimidin-2-yl)amino)-2-((2-(dimethylamino)ethyl)(methyl)amino)-4-methoxyphenyl)acrylamide]
< 1 nM | 1 nM | 20 nM | C=CC(=O)Nc1cc(Nc2ncc(Cl)c(Nc3cccc(Cl)c3NS(C)(=O)=O)n2)c(OC)cc1N(C)CCN(C)C [Example 34, N-(5-((5-chloro-4-((3-chloro-2-(methylsulfonamido)phenyl)amino)pyrimidin-2-yl)amino)-2-((2-(dimethylamino)ethyl)(methyl)amino)-4-methoxyphenyl)acrylamide]
< 1 nM | < 1 nM | 30 nM | C=CC(=O)Nc1cc(Nc2ncc(C(=O)OC)c(Nc3cccc4c3N(S(C)(=O)=O)CCC4)n2)c(OC)cc1N(C)CCN(C)C [Example 51, methyl 2-((5-acrylamido-4-((2-(dimethylamino)ethyl)(methyl)amino)-2-methoxyphenyl)amino)-4-((1-(methylsulfonyl)-1,2,3,4-tetrahydroquinolin-8-yl)amino)pyrimidin-5-carboxylate]
20 nM | 90 nM | 2400 nM | C=CC(=O)Nc1cc(Nc2nccc(Nc3ccccc3NS(=O)(=O)c3ccc(C)cc3)n2)c(OC)cc1N(C)CCN(C)C [Example 9, N-(2-((2-(dimethylamino)ethyl)(methyl)amino)-4-methoxy-5-((4-((2-((4-methylphenyl)sulfonamido)phenyl)amino)pyrimidin-2-yl)amino)phenyl)acrylamide]
3 nM | 9 nM | 30 nM | COc1cc(N2CCN(C)CC2)c(NC(=O)/C=C/CN(C)C)cc1Nc1ncc(Cl)c(Nc2ccccc2NS(C)(=O)=O)n1 [Example 27, (E)-N-(5-((5-chloro-4-((2-(methylsulfonamido)phenyl)amino)pyrimidin-2-yl)amino)-4-methoxy-2-(4-methylpiperazin-1-yl)phenyl)-4-(dimethylamino)buten-2-amide]
< 1 nM | < 1 nM | 6 nM | C=CC(=O)Nc1cc(Nc2ncc(Cl)c(Nc3cccc(CC)c3NS(=O)(=O)CC)n2)c(OC)cc1N(C)CCN(C)C [Example 42, N-(5-((5-chloro-4-((3-ethyl-2-(ethylsulfonamido)phenyl)amino)pyrimidin-2-yl)amino)-2-((2-(dimethylamino)ethyl)(methyl)amino)-4-methoxyphenyl)acrylamide]
< 1 nM | < 1 nM | 6 nM | C=CC(=O)Nc1cc(Nc2ncc(Cl)c(Nc3ccc4nccnc4c3NS(C)(=O)=O)n2)c(OC)cc1N(C)CCN(C)C [Example 69]
2 nM | 10 nM | 140 nM | C=CC(=O)Nc1cc(Nc2ncc(F)c(Nc3ccccc3NS(=O)(=O)CCC)n2)c(OC)cc1N(C)CCN(C)C [Example 13, N-(2-((2-(dimethylamino)ethyl)(methyl)amino)-5-((5-fluoro-4-((2-(propylsulfonamido)phenyl)amino)pyrimidin-2-yl)amino)-4-methoxyphenyl)acrylamide]
< 1 nM | < 1 nM | 6 nM | C=CC(=O)Nc1cc(Nc2ncc(Cl)c(Nc3ccc4nccnc4c3N(C)S(C)(=O)=O)n2)c(OC)cc1N(C)CCN(C)C [Example 68, N-(5-((5-chloro-4-((5-(N-methylmethylsulfonamido)quinoxalin-6-yl)amino)pyrimidin-2-yl)amino)-2-((2-(dimethylamino)ethyl)(methyl)amino)-4-methoxyphenyl)acrylamide]
< 1 nM | < 1 nM | 3 nM | C=CC(=O)Nc1cc(Nc2ncc(Cl)c(Nc3cccc4c3N(S(C)(=O)=O)CC4)n2)c(OC)cc1OCCN1CCCCC1 [Example 78, N-(5-((5-chloro-4-((1-(methylsulfonyl)indolin-7-yl)amino)pyrimidin-2-yl)amino)-4-methoxy-2-(2-(piperidin-1-yl)ethoxy)phenyl)acrylamide]
4 nM | 200 nM | 80 nM | COc1cc(N2CCOCC2)c(NC(=O)/C=C/CN(C)C)cc1Nc1ncc(Cl)c(Nc2ccccc2NS(C)(=O)=O)n1 [Example 26, (E)-N-(5-((5-chloro-4-((2-(methylsulfonamido)phenyl)amino)pyrimidin-2-yl)amino)-4-methoxy-2-morpholinophenyl)-4-(dimethylamino)buten-2-amide]
< 1 nM | < 1 nM | 10 nM | C=C(F)C(=O)Nc1cc(Nc2ncc(Cl)c(Nc3cccc4c3N(S(C)(=O)=O)CCC4)n2)c(OC)cc1N(C)CCN(C)C [Example 54, N-(5-((5-chloro-4-((1-(methylsulfonyl)-1,2,3,4-tetrahydroquinolin-8-yl)amino)pyrimidin-2-yl)amino)-2-((2-(dimethylamino)ethyl)(methyl)amino)-4-methoxyphenyl)-2-fluoroacrylamide]
< 1 nM | 10 nM | 440 nM | C=CC(=O)Nc1cc(Nc2nccc(Nc3ccccc3NS(=O)(=O)CC)n2)c(OC)cc1N(C)CCN(C)C [Example 10, N-(2-((2-(dimethylamino)ethyl)(methyl)amino)-5-((4-((2-(ethylsulfonamido)phenyl)amino)pyrimidin-2-yl)amino)-4-methoxyphenyl)acrylamide]

— US20240343694A1, “PYRIMIDINE DERIVATIVE, METHOD FOR PREPARING SAME, AND PHARMACEUTICAL COMPOSITION FOR PREVENTING OR TREATING CANCER COMPRISING SAME AS ACTIVE INGREDIENT” (KOREA RESERARCH INSTITUTE OF CHEMICAL TECHNOLOGY, priority 2021, published 2024)
